Earlier results, collected in publication PMC7732027 (Bioorganic & medicinal chemistry letters, 2019).

Test system: A/H3N2 viruses with PA I38T/F substitutions
Settings: cited from earlier work

COC(=O)OCOc1c2n(ccc1=O)N([C@@H]1c3ccccc3SCc3c1ccc(F)c3F)[C@@H]1COCCN1C2=O [BXM, baloxavir marboxil]
reduction in BXM susceptibility: more than 10 fold
